pIC50: −log10 of the molar value. Active and inactive are the calls of the source. The rule behind the calls is not given here. Where only a bound is given, the exact number is not on record here.

Consider 26 molecules from ChEMBL document CHEMBL5137032, “Design, synthesis of DNA-interactive 4-thiazolidinone-based indolo-/pyrroloazepinone conjugates as potential cytotoxic and topoisomerase I inhibitors” (Eur J Med Chem, 2022).

What all share (format): functional, cell-based
Test [1] has as its system MCF7. In words: Cytotoxicity against human MCF7 cells assessed as cell growth inhibition incubated for 48 hrs by MTT assay. The note with it: MCF7, 48 h. In general terms: Tetrazolium assays rely on reduction of a dye to a coloured formazan, in cell work by metabolically active cells.
The subject of test [2] is SK-MEL-28. The test can be described thus: Cytotoxicity against human SK-MEL-28 cells assessed as cell growth inhibition incubated for 48 hrs by MTT assay. Particulars: SK-MEL-28, 48 h.
The test system of test [3] is HT-29. The test can be described thus: Cytotoxicity against human HT-29 cells assessed as cell growth inhibition incubated for 48 hrs by MTT assay. Particulars: HT-29, 48 h.
For test [4], the system named is A549. In words: Cytotoxicity against human A549 cells assessed as cell growth inhibition incubated for 48 hrs by MTT assay. Particulars: A549, 48 h.
For test [5], the system named is HCT-116. The test can be described thus: Cytotoxicity against human HCT-116 cells assessed as cell growth inhibition incubated for 48 hrs by MTT assay. The note with it: HCT-116, 48 h.
In test [6] the test system is A549. In words: Induction of intracellular ROS generation in human A549 cells at […] incubated for 48 hrs by […] fluorescence microscopic analysis. Particulars: dose 0.47 µM.
For test [7], the system named is SK-MEL-28. The test can be described thus: Induction of intracellular ROS generation in human SK-MEL-28 cells at 2.26 uM incubated for 48 hrs by […] fluorescence microscopic analysis.

As usually defined, the pIC50 is −log10 of the IC50, conventionally taken in molar units. For the molecule `COc1ccc(C/N=C2\NC(=O)/C(=C3\CCNC(=O)c4[nH]ccc43)S2)cc1`, the negative logarithm of the IC50 (pIC50) in test [1] was 5.20; in test [2] it was 4.92; in test [3] it was 4.94; in test [4], 4.74; in test [5], 4.71.
As for `O=C1N/C(=N\CCc2ccc(F)cc2)S/C1=C1/CCNC(=O)c2[nH]c3ccccc3c21`, the negative logarithm of the IC50 (pIC50) in test [1], in test [2], in test [3], in test [4] and in test [5] was under 4.30 each time.
Turning to `COc1ccc(CC/N=C2\NC(=O)/C(=C3\CCNC(=O)c4[nH]c5ccccc5c43)S2)cc1`, the pIC50 in test [1] was 5.03; in test [2], 5.46; in test [3], 4.82; in test [4], 4.69; in test [5] it was 4.73.
For the molecule `O=C1N/C(=N\Cc2ccc(C(F)(F)F)cc2)S/C1=C1/CCNC(=O)c2[nH]ccc21`, the pIC50 in test [1] is under 4.00; in test [2], under 4.00; in test [3], under 4.30; in test [4] it was under 4.00; in test [5], under 4.00.
On to `Cn1c2c(c3ccccc31)/C(=C1\S/C(=N/Cc3ccccc3)NC1=O)CCNC2=O`, for which the pIC50 in test [1], in test [2], in test [3], in test [4] and in test [5] was under 4.30 each time.
Regarding `O=C1N/C(=N\Cc2ccccc2Cl)S/C1=C1/CCNC(=O)c2[nH]ccc21`, the pIC50 is 4.67 in test [1]; under 4.00 in test [2]; under 4.00 in test [3]; under 4.00 in test [4]; under 4.30 in test [5].
For the molecule `COc1ccc(CC/N=C2\NC(=O)/C(=C3\CCNC(=O)c4[nH]ccc43)S2)cc1`, the negative-log IC50 (pIC50) in test [1] is 5.19; in test [2], 5.10; in test [3], 5.09; in test [4], 4.80; in test [5] it was 4.97.
Turning to `O=C1N/C(=N\Cc2ccc3c(c2)OCO3)S/C1=C1/CCNC(=O)c2[nH]c3ccccc3c21`, the negative-log IC50 (pIC50) in test [1] was 4.50; in test [2], under 4.30; in test [3], 4.44; in test [4] it was under 4.30; in test [5], 4.67.
With `CC[C@@]1(O)C(=O)OCc2c1cc1n(c2=O)Cc2cc3ccccc3nc2-1` [CAMPTOTHECIN], the results for the pIC50 in test [2] and in test [4] were 5.65 and 6.33, respectively. Moreover, the result in test [6] and in test [7] was Active.
In the case of `O=C1N/C(=N\Cc2ccccc2)S/C1=C1/CCNC(=O)c2[nH]c3ccccc3c21`, the pIC50 was 4.51 in test [1]; 4.53 in test [2]; 4.50 in test [3]; 4.32 in test [4]; 4.46 in test [5].
The matching figures for `CC(C)(C)c1ccc(C/N=C2\NC(=O)/C(=C3\CCNC(=O)c4[nH]ccc43)S2)cc1`: 4.72, 4.63, 4.36, 4.36 and under 4.00.
The matching figures for `O=C1N/C(=N\Cc2ccc(F)cc2)S/C1=C1/CCNC(=O)c2[nH]ccc21`: 4.37, 4.95, 4.59, 4.65 and 4.77.
In the case of `O=C1N/C(=N\Cc2cccc(Cl)c2)S/C1=C1/CCNC(=O)c2[nH]ccc21`, the pIC50 in test [1] was 4.68; in test [2], 4.46; in test [3], 4.45; in test [4] it was 4.45.
Consider `O=C1N/C(=N\Cc2cccc(Cl)c2)S/C1=C1/CCNC(=O)c2[nH]c3ccccc3c21`, for which the pIC50 was 4.55 in test [1]; 4.62 in test [2]; under 4.30 in test [3]; 4.47 in test [4]; 4.60 in test [5].
For `O=C1N/C(=N\Cc2ccccc2)S/C1=C1/CCNC(=O)c2[nH]ccc21`, in that order: 4.51, 4.42, 4.44, 4.57 and 4.30.
For `O=C1N/C(=N\CCc2ccccc2)S/C1=C1/CCNC(=O)c2[nH]ccc21`, in that order: 4.68, 4.91, 4.60, 4.71 and 4.75.
For `COc1ccc(C/N=C2\NC(=O)/C(=C3\CCNC(=O)c4c3ccn4C)S2)cc1`, in that order: under 4.00, under 4.00, 4.49, under 4.00 and under 4.00.
With `CC(C)(C)c1ccc(C/N=C2\NC(=O)/C(=C3\CCNC(=O)c4[nH]c5ccccc5c43)S2)cc1`, the pIC50 in test [1] was 5.05; in test [2], 5.05; in test [3], 4.87; in test [4] it was 4.71; in test [5], 4.80.
Regarding `O=C1N/C(=N\Cc2ccc(F)cc2)S/C1=C1/CCNC(=O)c2[nH]c3ccccc3c21`, the pIC50 in test [1] is 4.39; in test [2] it was under 4.30; in test [3], 4.42; in test [4] it was 4.44; in test [5], 4.51.
Consider `COc1ccc(C/N=C2\NC(=O)/C(=C3\CCNC(=O)c4[nH]c5ccccc5c43)S2)cc1`, for which the pIC50 is 5.20 in test [1]; 5.01 in test [2]; 4.91 in test [3]; 5.43 in test [4]; 4.76 in test [5].
In the case of `O=C1N/C(=N\Cc2ccc3c(c2)OCO3)S/C1=C1/CCNC(=O)c2[nH]ccc21`, the pIC50 in test [1] was 5.37; in test [2] it was 4.95; in test [3], 4.78; in test [4], 4.70; in test [5], 5.37.
`O=c1[nH]cc(F)c(=O)[nH]1` [FLUOROURACIL]: the negative logarithm of the IC50 (pIC50) in test [1] was 4.68; in test [2], 4.83; in test [3], 4.62.
For the molecule `COc1ccc(C/N=C2\NC(=O)/C(=C3\CCNC(=O)c4[nH]c5ccccc5c43)S2)cc1OC`, the pIC50 in test [1] is 4.63; in test [2], 4.60; in test [3], under 4.30; in test [4], 4.52; in test [5] it was 4.79.
Regarding `COc1cccc2c1C(=O)c1c(O)c3c(c(O)c1C2=O)C[C@@](O)(C(=O)CO)C[C@@H]3O[C@H]1C[C@H](N)[C@H](O)[C@H](C)O1` [DOXORUBICIN], the pIC50 in test [2] was 5.79; in test [5], 5.13.
For the molecule `O=C1N/C(=N\Cc2ccc(Cl)cc2)S/C1=C1/CCNC(=O)c2[nH]c3ccccc3c21`, the pIC50 in test [1] was 4.33; in test [2], under 4.30; in test [3], 4.40; in test [4] it was 4.47; in test [5], 4.64.
The matching figures for `O=C1N/C(=N\Cc2ccc(Cl)cc2)S/C1=C1/CCNC(=O)c2[nH]ccc21`: under 4.00, under 4.00, under 4.00, under 4.00 and under 4.00.
